Experimental data published in paper PMC5458211, “Mitochondrial VDAC1-based peptides: Attacking oncogenic properties in glioblastoma” (Oncotarget, 2017).
Non-standard residues stand in square brackets, D forms with d. Residues, ends and D or L forms follow the SMILES beside them.

Experiments:
SH-SY5Y cells = test: Cell death by PI staining and flow cytometry, SH-SY5Y; assay type: cell-based; details: human neuroblastoma, 6 h at 37°C, serum-free medium, Suppl Fig 1
Experimental: Cells (6×10^5 /ml) were incubated in 500 μl serum-free medium with the peptide of interest for 6 h at 37°C in the presence of 5% CO2. The cells were then trypsinized, centrifuged (1500xg, 5 min), washed with PBS and analyzed for cell death using propidium iodide (PI) staining and flow cytometer (Beckton-Dickinson, San Jose, CA) and BD CellQuest Pro software. Apoptotic cell death was also analyzed by PI and annexin V-FITC staining, and by acridine orange and ethidium bromide staining and light microscopy (Olympus LX2-KSP). […]
was subsequently visualized by incubating with DAB. […]
Supplementary Figure 1: VDAC1-based peptides induce dramatic cell death of several brain tumor-derived cell […]
Ter-Antp (●) peptide in serum-free appropriate growth medium for 6 h at 37°C. Cells were harvested, washed twice with PBS and cell death was analyzed by propidium iodide (PI) staining and ﬂow cytometry. D. Summary of IC50 values (μM) for the peptides with the indicated […]
(also on this page, place not known: www.impactjournals.com/oncotarget/ Oncotarget, Materials 2017 V , Supplementary) […]

[1] = tested on: primary brain cells (PBCs); test: Cell death by PI staining and flow cytometry, primary brain cells; assay type: cell-based; details: mouse PBCs, 6 h at 37°C, serum-free medium, PI staining; Fig 1I-1K
Description: Figure 1 VDAC1-based peptides induce dramatic cell death of several brain tumor-derived cell lines but to lesser extent in primary brain cells A. IHC staining of VDAC1 of human normal brain (n=13) or glioblastoma (n=41) in tissue array slides (Biomax), as described in Materials and methods available online in Supplemental information. Percentages of sections stained at the intensity indicated are shown. […] The VDAC1-derived sequences Δ(1-14)N-terminus and LP4 are in green and pink, respectively. The cell-penetrating peptides Antp and Tf are in orange and blue, respectively. The loop shape of LP4 stabilized by a tryptophan zipper is in purple. The amino acids of Δ(1-14)N-terminus, LP4 and Antp are in the D configuration. The sequences of D-LP4 and Retro-D-LP4 are presented below. C. Immunoblot analysis of VDAC1, HK-I, Bcl-2 and Transferrin receptor (TfR) expression in brain tumor-derived cell lines using specific antibodies, as described in Materials and methods available online in Supplemental information. […] Cells were harvested, washed twice with PBS and cell death was analyzed by propidium iodide (PI) staining and flow cytometry. H. IC50 values (μM) for pepdide inducing cell death as derived from D-G. The results shown correspond to means ± SD (n=3). […] Cells were harvested, washed twice with PBS and cell death was analyzed by PI staining and flow cytometry. […]
Cells (6×10^5 /ml) were incubated in 500 μl serum-free medium with the peptide of interest for 6 h at 37°C in the presence of 5% CO2. The cells were then trypsinized, centrifuged (1500xg, 5 min), washed with PBS and analyzed for cell death using propidium iodide (PI) staining and flow cytometer (Beckton-Dickinson, San Jose, CA) and BD CellQuest Pro software. Apoptotic cell death was also analyzed by PI and annexin V-FITC staining, and by acridine orange and ethidium bromide staining and light microscopy (Olympus LX2-KSP).

Row | Structure (SMILES) | cell death, SH-SY5Y (SH-SY5Y cells) | cell death in primary brain cells as compared to U-87MG cells [1]
1 | CC[C@@H](C)[C@@H](NC(=O)[C@@H](CCCCN)NC(=O)[C@H](NC(=O)[C@@H](CCC(N)=O)NC(=O)[C@@H](CCCNC(=N)N)NC(=O)[C@@H](CC(C)C)NC(=O)CNC(=O)[C@@H](Cc1ccccc1)NC(=O)CNC(=O)[C@@H](Cc1ccc(O)cc1)NC(=O)CNC(=O)[C@@H](CCCCN)NC(=O)[C@H](NC(=O)[C@@H](Cc1ccccc1)NC(=O)[C@H](NC(=O)[C@@H](CC(=O)O)NC(=O)[C@H](N)CCCNC(=N)N)C(C)C)[C@H](C)O)[C@H](C)CC)C(=O)N[C@H](Cc1c[nH]c2ccccc12)C(=O)N[C@H](Cc1ccccc1)C(=O)N[C@H](CCC(N)=O)C(=O)N[C@H](CC(N)=O)C(=O)N[C@H](CCCNC(=N)N)C(=O)N[C@H](CCCNC(=N)N)C(=O)N[C@H](CCSC)C(=O)N[C@H](CCCCN)C(=O)N[C@H](Cc1c[nH]c2ccccc12)C(=O)N[C@H](CCCCN)C(=O)N[C@H](CCCCN)C(=O)O [D-ΔN-Ter-Antp] (H-[dR][dD][dV][dF][dT][dK]G[dY]G[dF]G[dL][dR][dQ][dI][dK][dI][dW][dF][dQ][dN][dR][dR][dM][dK][dW][dK][dK]-OH; N-terminus and C-terminus assumed) | effectively induce cell death | lesser extent
2 | CC[C@H](C)[C@H](NC(=O)[C@H](Cc1ccc(O)cc1)NC(=O)[C@@H]1CCCN1C(=O)[C@H](CCCNC(=N)N)NC(=O)[C@H](Cc1c[nH]cn1)NC(=O)[C@H](CO)NC(=O)[C@H](Cc1c[nH]c2ccccc12)NC(=O)[C@@H](NC(=O)[C@H](Cc1c[nH]c2ccccc12)NC(=O)[C@H](CCC(=O)O)NC(=O)[C@@H](CCCCN)NC(=O)[C@@H](CCCCN)NC(=O)[C@@H](CC(C)C)NC(=O)[C@@H](CCC(=O)O)NC(=O)[C@H](NC(=O)[C@@H](C)NC(=O)[C@H](NC(=O)[C@@H](CC(N)=O)NC(=O)[C@@H](CC(C)C)NC(=O)[C@@H](C)NC(=O)[C@@H](Cc1c[nH]c2ccccc12)NC(=O)[C@H](NC(=O)[C@@H](C)NC(=O)CNC(=O)[C@@H](CC(N)=O)NC(=O)[C@@H](CO)NC(=O)[C@@H](CC(N)=O)NC(=O)[C@H](CCCCN)NC(=O)[C@H](Cc1c[nH]c2ccccc12)NC(=O)[C@@H](NC(=O)[C@H](Cc1c[nH]c2ccccc12)NC(=O)[C@@H](N)CCCCN)[C@@H](C)O)[C@H](C)O)C(C)C)[C@H](C)O)[C@@H](C)O)C(=O)N[C@@H](C)C(=O)N[C@@H](Cc1c[nH]cn1)C(=O)O [Retro-Tf-D-LP4] |  | lesser extent
3 | CC[C@H](C)[C@H](NC(=O)[C@H](C)NC(=O)[C@@H](N)Cc1c[nH]cn1)C(=O)N[C@@H](Cc1ccc(O)cc1)C(=O)N1CCC[C@H]1C(=O)N[C@@H](CCCNC(=N)N)C(=O)N[C@@H](Cc1c[nH]cn1)C(=O)N[C@@H](CO)C(=O)N[C@@H](Cc1c[nH]c2ccccc12)C(=O)N[C@H](C(=O)N[C@@H](Cc1c[nH]c2ccccc12)C(=O)N[C@@H](CCC(=O)O)C(=O)N[C@H](CCCCN)C(=O)N[C@H](CCCCN)C(=O)N[C@H](CC(C)C)C(=O)N[C@H](CCC(=O)O)C(=O)N[C@@H](C(=O)N[C@H](C)C(=O)N[C@@H](C(=O)N[C@H](CC(N)=O)C(=O)N[C@H](CC(C)C)C(=O)N[C@H](C)C(=O)N[C@H](Cc1c[nH]c2ccccc12)C(=O)N[C@@H](C(=O)N[C@H](C)C(=O)NCC(=O)N[C@H](CC(N)=O)C(=O)N[C@H](CO)C(=O)N[C@H](CC(N)=O)C(=O)N[C@@H](CCCCN)C(=O)N[C@@H](Cc1c[nH]c2ccccc12)C(=O)N[C@H](C(=O)N[C@@H](Cc1c[nH]c2ccccc12)C(=O)N[C@@H](CCCCN)C(=O)O)[C@@H](C)O)[C@H](C)O)C(C)C)[C@H](C)O)[C@@H](C)O [Tf-D-LP4] | effectively induce cell death | lesser extent
